Target: T1, Purified ERAP1(37-941)-10His (ERAP1) (Homo sapiens, UniProt Q9NZ08)
T1 construct: Purified ERAP1(37-941)-10His (ERAP1); 10His (C)
Assay: ERAP1 mediated hydrolysis of an amide substrate measured in a biochemical system (10-mer decapeptide substrate)
Conditions: 10-mer substrate, 23° C. for 1 h, excitation 279 nm and emission 355 nm; read-out: IC50 vs Decapeptide WRVYEKC(Dnp)ALK-acid (where Dnp is Dinitrophenyl maleimide) (10-mer)
Method: Biological Assay 1: ERAP1 Mediated Hydrolysis of an Amide Substrate Measured in a Biochemical System
1× Assay buffer (AB): 25 mM Bis-tris propane, 0.05% w/v Hydroxypropylmethylcellulose pH 7.75 made with Optima grade water
Decapeptide WRVYEKC(Dnp)ALK-acid (where Dnp is Dinitrophenyl maleimide) (10-mer) L-Leucine 7-amido-4-methylcoumarin (L-AMC)
12.5 μL ERAP1 enzyme in 1×AB was combined with 250 nL test compound in DMSO. 12.5 μL of either 240 μM L-AMC in 1×AB or 100 μM 10-mer in 1×AB was added to the reaction and incubated at 23° C. for 1 h. For detection, plates were read at excitation 365 nm and emission 442 nm (L-AMC) or excitation 279 nm and emission 355 nm (10-mer). Compound IC50 was determined using a 4 parameter equation.

T1 sequence (Q9NZ08 37-941): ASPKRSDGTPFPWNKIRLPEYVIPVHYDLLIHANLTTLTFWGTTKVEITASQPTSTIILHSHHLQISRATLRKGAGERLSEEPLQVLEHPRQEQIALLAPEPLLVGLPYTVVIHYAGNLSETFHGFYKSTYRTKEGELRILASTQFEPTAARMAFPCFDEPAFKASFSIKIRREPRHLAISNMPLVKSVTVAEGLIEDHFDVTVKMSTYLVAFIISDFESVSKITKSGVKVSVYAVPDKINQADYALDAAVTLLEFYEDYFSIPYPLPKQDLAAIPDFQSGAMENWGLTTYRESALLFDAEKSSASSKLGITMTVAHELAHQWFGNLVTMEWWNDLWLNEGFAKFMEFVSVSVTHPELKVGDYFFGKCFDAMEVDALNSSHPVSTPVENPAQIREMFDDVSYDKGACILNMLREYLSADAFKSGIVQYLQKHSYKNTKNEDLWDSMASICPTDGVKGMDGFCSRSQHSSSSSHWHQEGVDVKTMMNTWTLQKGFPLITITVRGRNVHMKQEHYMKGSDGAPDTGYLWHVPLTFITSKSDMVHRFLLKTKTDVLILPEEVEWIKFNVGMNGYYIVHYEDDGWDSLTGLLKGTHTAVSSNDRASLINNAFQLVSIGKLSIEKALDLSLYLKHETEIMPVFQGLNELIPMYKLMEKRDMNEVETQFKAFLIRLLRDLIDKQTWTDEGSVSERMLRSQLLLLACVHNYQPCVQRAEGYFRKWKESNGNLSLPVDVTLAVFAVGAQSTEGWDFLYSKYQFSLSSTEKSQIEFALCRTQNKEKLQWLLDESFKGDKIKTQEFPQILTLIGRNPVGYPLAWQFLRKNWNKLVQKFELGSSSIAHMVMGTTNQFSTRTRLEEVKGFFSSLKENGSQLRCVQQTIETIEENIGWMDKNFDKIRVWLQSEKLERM

Row | Structure (SMILES) | IC50
1 | Cn1ncnc1-c1cc(NS(=O)(=O)c2cc(C(=O)O)ccc2C2CC2)c(-n2cccc2)cc1Cl [Example 204, 3-(N-(4-chloro-5-(1-methyl-1,2,4-triazol-5-yl)-2-(pyrrol-1-yl)phenyl)sulfamoyl)-4-cyclopropylbenzoic acid] | < 500 nM
2 | COc1ccc(C(=O)O)cc1S(=O)(=O)Nc1cc(C(F)(F)F)ccc1-c1ccccc1C(C)C [Example 51, 3-(N-(2′-isopropyl-4-(trifluoromethyl)-[1,1′-biphenyl]-2-yl)sulfamoyl)-4-methoxybenzoic acid] | < 5000 nM
3 | COc1ccc(C(=O)O)cc1S(=O)(=O)Nc1cc(C(F)(F)F)ccc1-c1ccccc1C [Example 8, 4-methoxy-3-(N-(2′-methyl-4-(trifluoromethyl)-[1,1′-biphenyl]-2-yl)sulfamoyl)benzoic acid] | < 500 nM
4 | COc1ccc(C(=O)O)cc1S(=O)(=O)Nc1cc(C(F)(F)F)ccc1-c1ccc(Cl)cc1 [Example 49, 3-(N-(4′-chloro-4-(trifluoromethyl)-[1,1′-biphenyl]-2-yl)sulfamoyl)-4-methoxybenzoic acid] | < 500 nM
5 | O=C(O)c1ccc(C2CC2)c(S(=O)(=O)Nc2cc(-c3ccns3)ccc2-c2ccc(F)s2)c1 [Example 147, 4-cyclopropyl-3-(N-(2-(5-fluorothiophen-2-yl)-5-(isothiazol-5-yl)phenyl)sulfamoyl)benzoic acid] | < 500 nM
6 | COc1ccc(C(=O)O)cc1S(=O)(=O)Nc1cc(C#N)ccc1-c1ccc(F)s1 [Example 100, 3-(N-(5-cyano-2-(5-fluorothiophen-2-yl)phenyl)sulfamoyl)-4-methoxybenzoic acid] | < 500 nM
7 | O=C(O)c1ccc(C2CC2)c(S(=O)(=O)Nc2cc(-c3ccns3)c(Cl)cc2-n2cccc2)c1 [Example 203, 3-(N-(4-chloro-5-(isothiazol-5-yl)-2-(pyrrol-1-yl)phenyl)sulfamoyl)-4-cyclopropylbenzoic acid] | < 500 nM
8 | COc1ccc(C(=O)O)cc1S(=O)(=O)Nc1cc(S(C)(=O)=O)ccc1-c1ccc(F)s1 [Example 105, 3-(N-(2-(5-fluorothiophen-2-yl)-5-(methylsulfonyl)phenyl)sulfamoyl)-4-methoxybenzoic acid] | < 500 nM
9 | COc1ccc(C(=O)O)cc1S(=O)(=O)Nc1cc(C(F)(F)F)ccc1-c1ccc(C#N)cc1 [Example 16, 3-(N-(4′-cyano-4-(trifluoromethyl)-[1,1′-biphenyl]-2-yl)sulfamoyl)-4-methoxybenzoic acid] | < 5000 nM
10 | CCc1ccc(C(=O)O)cc1S(=O)(=O)Nc1cc(C(F)(F)F)ccc1-c1cncs1 [Example 129, 4-ethyl-3-(N-(2-(thiazol-5-yl)-5-(trifluoromethyl)phenyl)sulfamoyl)benzoic acid] | < 500 nM

Second part, the compound after the results:

Row | IC50 | Structure (SMILES)
11 | < 500 nM | CCc1ccc(C(=O)O)cc1S(=O)(=O)Nc1cc(C#N)ccc1-c1cccc(C#N)c1 [Example 42, 3-(N-(3′,4-dicyano-[1,1′-biphenyl]-2-yl)sulfamoyl)-4-ethylbenzoic acid]
12 | < 500 nM | CCc1ccc(C(=O)O)cc1S(=O)(=O)Nc1cc(C(N)=O)ccc1-c1ccccn1 [Example 104, 3-(N-(5-carbamoyl-2-(pyridin-2-yl)phenyl)sulfamoyl)-4-ethylbenzoic acid]
13 | < 500 nM | CCc1ccc(C(=O)O)cc1S(=O)(=O)Nc1cc(S(C)(=O)=O)ccc1-c1cccnc1 [Example 54, 4-ethyl-3-(N-(5-(methylsulfonyl)-2-(pyridin-3-yl)phenyl)sulfamoyl) benzoic acid]
14 | < 500 nM | CCc1ccc(C(=O)O)cc1S(=O)(=O)Nc1cc(C#N)ccc1-n1cccc1 [Example 107, 3-(N-(5-cyano-2-(pyrrol-1-yl)phenyl)sulfamoyl)-4-ethylbenzoic acid]
15 | < 500 nM | N#Cc1cc(NS(=O)(=O)c2cc(C(=O)O)ccc2C2CC2)c(-c2ccccn2)cc1F [Example 154, 3-(N-(5-cyano-4-fluoro-2-(pyridin-2-yl)phenyl)sulfamoyl)-4-cyclopropylbenzoic acid]

Reference: patent publication US12023333B2, “Phenyl-sulfamoyl.benzoyc acids as ERAP1 modulators” (GREY WOLF THERAPEUTICS LIMITED, priority 2019, dated 2024)
